From US9175003B2, “Substituted azoanthracene derivatives and intermediates for preparation thereof” (TransTech Pharma, LLC, priority 2009, dated 2015) come the findings set out here.

As usually defined, the EC50 is the midpoint of the concentration-response curve.

human GLP-1 receptor, sequence (P43220 24-463): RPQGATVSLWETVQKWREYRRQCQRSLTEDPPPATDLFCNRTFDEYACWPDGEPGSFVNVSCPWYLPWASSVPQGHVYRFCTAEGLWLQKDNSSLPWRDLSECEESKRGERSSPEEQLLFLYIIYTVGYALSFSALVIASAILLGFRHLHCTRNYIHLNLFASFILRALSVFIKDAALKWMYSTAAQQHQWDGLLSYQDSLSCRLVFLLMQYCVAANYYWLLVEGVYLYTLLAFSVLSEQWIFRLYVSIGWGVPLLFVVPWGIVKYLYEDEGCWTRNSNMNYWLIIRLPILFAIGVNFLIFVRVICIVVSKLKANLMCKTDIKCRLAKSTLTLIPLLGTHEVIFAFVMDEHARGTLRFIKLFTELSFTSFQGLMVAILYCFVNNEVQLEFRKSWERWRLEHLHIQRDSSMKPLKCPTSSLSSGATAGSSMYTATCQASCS

This test addresses human GLP-1 receptor (Homo sapiens (Human), UniProt P43220). The following applies: read-out: Mean EC50; cAMP, HTRF detection, 30 min at 37° C., HEK-293 cells expressing cloned human GLP-1 receptor. (In general: In TR-FRET formats the signal depends on donor and acceptor labels being close together.)
Experimental: Following overnight incubation of cells, media was removed, and compounds (at concentrations ranging from 0.0001 to 100 μM) were added to monolayer cells in Iscove's modified dulbecco's medium (IMDM), 100 μM RO 20-1724 PDE inhibitor, 0.1% BSA, 2% DMSO in a final volume of 100 μL, and incubated for 30 min at 37° C. […] Alternatively, cells were harvested and combined with compounds in suspension using the buffer and protocol described above. cAMP was quantified using a homogenous time-resolved fluorescence detection system (cAMP dynamic, CIS bio International).
For `Cc1nccc(Oc2ccc(C[C@H](NC(=O)[C@@H]3Cc4cc5c(cc4CN3C(=O)OC(C)(C)C)O[C@@H](c3ccc(OCc4ccc(Cl)c(Cl)c4)cc3)CO5)C(=O)O)cc2)c1C` [Example 403, (3S,8S)-8-{(S)-1-Carboxy-2-[4-(2,3-dimethyl-pyridin-4-yloxy)-phenyl]-ethylcarbamoyl}-3-[4-(3,4-dichloro-benzyloxy)-phenyl]-2,3,8,9-tetrahydro-6H-[1,4]dioxino[2,3-g]isoquinoline-7-carboxylic acid tert-butyl ester], the EC50 was 138 nM. As for `Cc1nc(C(=O)N2Cc3cc4c(cc3C[C@H]2C(=O)N[C@@H](Cc2ccc(-c3ccnc(C)c3C)cc2)C(=O)O)OC[C@H](c2ccc(OCC3CCCCC3)cc2)O4)c(C)o1` [Example 405, (S)-2-{[(3S,8S)-3-(4-Cyclohexylmethoxy-phenyl)-7-(2,5-dimethyl-oxazole-4-carbonyl)-2,3,6,7,8,9-hexahydro-[1,4]dioxino[2,3-g]isoquinoline-8-carbonyl]-amino}-3-[4-(2,3-dimethyl-pyridin-4-yl)-phenyl]-propionic acid], the EC50 was 213 nM. For the molecule `Cc1nccc(-c2ccc(C[C@H](NC(=O)[C@@H]3Cc4cc5c(cc4CN3C(=O)c3cccc(F)c3)O[C@@H](c3ccc(OCc4ccc(Cl)c(Cl)c4)cc3)CO5)C(=O)O)cc2)c1C` [Example 409, (S)-2-{[(3S,8S)-3-[4-(3,4-Dichloro-benzyloxy)-phenyl]-7-(3-fluoro-benzoyl)-2,3,6,7,8,9-hexahydro-[1,4]dioxino[2,3-g]isoquinoline-8-carbonyl]-amino}-3-[4-(2,3-dimethyl-pyridin-4-yl)-phenyl]-propionic acid], the EC50 was determined as 24 nM. As to `Cc1nc(N)sc1S(=O)(=O)N1Cc2cc3c(cc2C[C@H]1C(=O)N[C@@H](Cc1ccc(-c2ccnc(C)c2C)cc1)C(=O)O)OC[C@H](c1ccc(OCc2ccc(Cl)c(Cl)c2)cc1)O3` [Example 411, (S)-2-({(3S,8S)-7-(2-Amino-4-methyl-thiazole-5-sulfonyl)-3-[4-(3,4-dichloro-benzyloxy)-phenyl]-2,3,6,7,8,9-hexahydro-[1,4]dioxino[2,3-g]isoquinoline-8-carbonyl}-amino)-3-[4-(2,3-dimethyl-pyridin-4-yl)-phenyl]-propionic acid], the EC50 was found to be 9 nM. Consider `Cc1nccc(-c2ccc(C[C@H](NC(=O)[C@@H]3Cc4cc5c(cc4CN3C(=O)N[C@H](C)c3ccccc3)O[C@@H](c3cccc(OCc4ccc(Cl)c(Cl)c4)c3)CO5)C(=O)O)cc2)c1C` [Example 414, (S)-2-{[(3S,8S)-3-[3-(3,4-Dichloro-benzyloxy)-phenyl]-7-((R)-1-phenylethylcarbamoyl)-2,3,6,7,8,9-hexahydro-[1,4]dioxino[2,3-g]isoquinoline-8-carbonyl]-amino}-3-[4-(2,3-dimethyl-pyridin-4-yl)-phenyl]-propionic acid], for which the EC50 came to 191 nM.

Take `Cc1nc(C(=O)N2Cc3cc4c(cc3C[C@H]2C(=O)N[C@@H](Cc2ccc(-c3ccnc(C)c3C)cc2)C(=O)O)OC[C@H](c2cccc(OCc3ccc(Cl)c(Cl)c3)c2)O4)c(C)o1` [Example 415, (S)-2-{[(3S,8S)-3-[3-(3,4-Dichloro-benzyloxy)-phenyl]-7-(2,5-dimethyl-oxazole-4-carbonyl)-2,3,6,7,8,9-hexahydro-[1,4]dioxino[2,3-g]isoquinoline-8-carbonyl]-amino}-3-[4-(2,3-dimethyl-pyridin-4-yl)-phenyl]-propionic acid]: the EC50 stood at 75 nM. As to `CC[C@@H](c1ccccc1)N1Cc2cc3c(cc2C[C@H]1C(=O)N[C@@H](Cc1ccc(-c2ccnc(C)c2C)cc1)C(=O)O)OC[C@H](c1cccc(OCc2ccc(Cl)c(Cl)c2)c1)O3` [Example 419, (S)-2-{[(3S,8S)-3-[3-(3,4-Dichloro-benzyloxy)-phenyl]-7-((S)-1-phenyl-propyl)-2,3,6,7,8,9-hexahydro-[1,4]dioxino[2,3-g]isoquinoline-8-carbonyl]-amino}-3-[4-(2,3-dimethyl-pyridin-4-yl)-phenyl]-propionic acid], the EC50 was found to be 90 nM.

Turning to `CC[C@@H](c1ccccc1)N1Cc2cc3c(cc2C[C@H]1C(=O)N[C@@H](Cc1ccc(Oc2ccnc(C)c2C)cc1)C(=O)O)OC[C@H](c1cccc(OCc2ccc(Cl)c(Cl)c2)c1)O3` [Example 422, (S)-2-{[(3S,8S)-3-[3-(3,4-Dichloro-benzyloxy)-phenyl]-7-((S)-1-phenyl-propyl)-2,3,6,7,8,9-hexahydro-[1,4]dioxino[2,3-g]isoquinoline-8-carbonyl]-amino}-3-[4-(2,3-dimethyl-pyridin-4-yloxy)-phenyl]-propionic acid], the EC50 stood at 8 nM.

`CC[C@@H](c1ccccc1)N1Cc2cc3c(cc2C[C@H]1C(=O)N[C@@H](Cc1ccc(-c2ccnc(C)c2C)cc1)C(=O)O)OC[C@H](c1ccc(Oc2ccccc2)cc1)O3` [Example 424, (S)-3-[4-(2,3-Dimethyl-pyridin-4-yl)-phenyl]-2-{[(3S,8S)-3-(4-phenoxy-phenyl)-7-((S)-1-phenyl-propyl)-2,3,6,7,8,9-hexahydro-[1,4]dioxino[2,3-g]isoquinoline-8-carbonyl]-amino}-propionic acid]: the EC50 amounted to 203 nM.

For the molecule `Cc1nccc(-c2ccc(C[C@H](NC(=O)[C@@H]3Cc4cc5c(cc4CN3C(=O)OC(C)(C)C)O[C@H](c3ccc(OCc4ccc(Cl)c(Cl)c4)cc3)CO5)C(=O)O)cc2)c1C` [Example 427, (3R,8S)-8-{(S)-1-Carboxy-2-[4-(2,3-dimethyl-pyridin-4-yl)-phenyl]-ethylcarbamoyl}-3-[4-(3,4-dichloro-benzyloxy)-phenyl]-2,3,8,9-tetrahydro-6H-[1,4]dioxino[2,3-g]isoquinoline-7-carboxylic acid tert-butyl ester], the EC50 turned out to be 84 nM. For `Cc1nc(C(=O)N2Cc3cc4c(cc3C[C@H]2C(=O)N[C@@H](Cc2ccc(-c3ccnc(C)c3C)cc2)C(=O)O)OC[C@@H](c2ccc(OCc3ccc(Cl)c(Cl)c3)cc2)O4)c(C)o1` [Example 428, (S)-2-{[(3R,8S)-3-[4-(3,4-Dichloro-benzyloxy)-phenyl]-7-(2,5-dimethyl-oxazole-4-carbonyl)-2,3,6,7,8,9-hexahydro-[1,4]dioxino[2,3-g]isoquinoline-8-carbonyl]-amino}-3-[4-(2,3-dimethyl-pyridin-4-yl)-phenyl]-propionic acid], the EC50 was 22 nM. Turning to `Cc1nccc(-c2ccc(C[C@H](NC(=O)[C@@H]3Cc4cc5c(cc4CN3C(=O)N[C@H](C)c3ccccc3)O[C@H](c3ccc(OCc4ccc(Cl)c(Cl)c4)cc3)CO5)C(=O)O)cc2)c1C` [Example 429, (S)-2-{[(3R,8S)-3-[4-(3,4-Dichloro-benzyloxy)-phenyl]-7-((R)-1-phenyl-ethylcarbamoyl)-2,3,6,7,8,9-hexahydro-[1,4]dioxino[2,3-g]isoquinoline-8-carbonyl]-amino}-3-[4-(2,3-dimethyl-pyridin-4-yl)-phenyl]-propionic acid], the EC50 came out at 32 nM. For the molecule `CC[C@@H](c1ccccc1)N1Cc2cc3c(cc2C[C@H]1C(=O)N[C@@H](Cc1ccc(-c2ccnc(C)c2C)cc1)C(=O)O)OC[C@@H](c1ccc(OCc2ccc(Cl)c(Cl)c2)cc1)O3` [Example 430, (S)-2-{[(3R,8S)-3-[4-(3,4-Dichloro-benzyloxy)-phenyl]-7-((S)-1-phenyl-propyl)-2,3,6,7,8,9-hexahydro-[1,4]dioxino[2,3-g]isoquinoline-8-carbonyl]-amino}-3-[4-(2,3-dimethyl-pyridin-4-yl)-phenyl]-propionic acid], the EC50 amounted to 12 nM. Regarding `Cc1nc(C(=O)N2Cc3cc4c(cc3C[C@H]2C(=O)N[C@@H](Cc2ccc(-c3ccnc(C)c3C)cc2)C(=O)O)OC[C@H](c2ccc(OCc3ccc(Cl)c(Cl)c3)cc2)O4)co1` [Example 431, (S)-2-{[(3S,8S)-3-[4-(3,4-Dichloro-benzyloxy)-phenyl]-7-(2-methyl-oxazole-4-carbonyl)-2,3,6,7,8,9-hexahydro-[1,4]dioxino[2,3-g]isoquinoline-8-carbonyl]-amino}-3-[4-(2,3-dimethyl-pyridin-4-yl)-phenyl]-propionic acid], the EC50 was 31 nM. For the molecule `Cc1nc(C)c(C(=O)N2Cc3cc4c(cc3C[C@H]2C(=O)N[C@@H](Cc2ccc(-c3ccnc(C)c3C)cc2)C(=O)O)OC[C@H](c2ccc(OCc3ccc(Cl)c(Cl)c3)cc2)O4)o1` [Example 432, (S)-2-{[(3S,8S)-3-[4-(3,4-Dichloro-benzyloxy)-phenyl]-7-(2,4-dimethyl-oxazole-5-carbonyl)-2,3,6,7,8,9-hexahydro-[1,4]dioxino[2,3-g]isoquinoline-8-carbonyl]-amino}-3-[4-(2,3-dimethyl-pyridin-4-yl)-phenyl]-propionic acid], the concentration for a half-maximal effect (EC50) was 21 nM. The result for `Cc1nccc(Oc2ccc(C[C@H](NC(=O)[C@@H]3Cc4cc5c(cc4CN3S(=O)(=O)C(C)C)O[C@@H](c3ccc(OCc4ccc(Cl)c(Cl)c4)cc3)CO5)C(=O)O)cc2)c1C` [Example 436, (S)-2-{[(3S,8S)-3-[4-(3,4-Dichloro-benzyloxy)-phenyl]-7-(propane-2-sulfonyl)-2,3,6,7,8,9-hexahydro-[1,4]dioxino[2,3-g]isoquinoline-8-carbonyl]-amino}-3-[4-(2,3-dimethyl-pyridin-4-yloxy)-phenyl]-propionic acid] reads 320 nM; that for `Cc1nccc(-c2ccc(C[C@H](NC(=O)[C@@H]3Cc4cc5c(cc4CN3C(=O)NC3(C)CCCCC3)O[C@@H](c3ccc(OCc4ccc(Cl)c(Cl)c4)cc3)CO5)C(=O)O)cc2)c1C` [Example 438, (S)-2-{[(3S,8S)-3-[4-(3,4-Dichloro-benzyloxy)-phenyl]-7-(1-methyl-cyclohexylcarbamoyl)-2,3,6,7,8,9-hexahydro-[1,4]dioxino[2,3-g]isoquinoline-8-carbonyl]-amino}-3-[4-(2,3-dimethyl-pyridin-4-yl)phenyl]-propionic acid], 37 nM; that for `Cc1nc(C(=O)N2Cc3cc4c(cc3C[C@H]2C(=O)N[C@@H](Cc2ccc(-c3ccc(F)cc3)cc2)C(=O)O)OC[C@H](c2ccc(OCc3ccc(Cl)c(Cl)c3)cc2)O4)c(C)o1` [Example 440, (S)-2-{[(3S,8S)-3-[4-(3,4-Dichloro-benzyloxy)-phenyl]-7-(2,5-dimethyl-oxazole-4-carbonyl)-2,3,6,7,8,9-hexahydro-[1,4]dioxino[2,3-g]isoquinoline-8-carbonyl]-amino}-3-(4′-fluoro-biphenyl-4-yl)-propionic acid], 387 nM.
